Experimental findings from ChEMBL document CHEMBL1156454, “Essential requirement for sphingosine kinase 2 in a sphingolipid apoptosis pathway activated by FTY720 analogues” (J Biol Chem, 2007) are described below.

For series [1], the system named is Jurkat. The series is described as follows: Induction of apoptosis in human Jurkat cells assessed as PARP cleavage at 5 uM after 16 hrs. The format is functional, cell-based.
Series [2] concerns Splenocyte. In words: Induction of apoptosis in mouse primary splenocytes assessed as cell death after 18 hrs. The format is functional, cell-based.
Series [3] deals with Lymphocyte. In words: Induction of apoptosis in MRL/MpJ-lpr/lpr mouse spleen lymphocytes assessed as increase in apoptotic cells in spleen at 1 mg/kg, ip by annexin V method. The format is functional, organism-based. Details: dose 1 mg/kg.
The subject of series [4] is Jurkat. The series is described as follows: Induction of apoptosis in human Jurkat cells assessed as cell death after 18 hrs. The format is functional, cell-based.
Series [5] deals with Jurkat. The series is described as follows: Inhibition of wild type human Jurkat cells after 18 hrs by MTT assay. The format is functional, cell-based.
The subject of series [6] is Jurkat. In words: Resistance index, ratio of IC50 for 2-amino-4-(4-heptyloxyphenyl)-2-methylbutanol-resistant human Jurkat SBR2 mutant cells to IC50 for human wild type Jurkat cells. The format is functional.
Series [7] relates to Jurkat. The series is described as follows: Inhibition of human 2-amino-4-(4-heptyloxyphenyl)-2-methylbutanol-resistant human Jurkat SBR3 mutant cells proliferation after 18 hrs by MTT assay. The format is functional, cell-based. A general note: Formazan colour is commonly taken as a measure of viable cells.
The test system of series [8] is Jurkat. In words: Resistance index, ratio of IC50 for 2-amino-4-(4-heptyloxyphenyl)-2-methylbutanol-resistant human Jurkat SBR3 mutant cells to IC50 for human wild type Jurkat cells. The format is functional.
Series [9] relates to Jurkat. The series is described as follows: Inhibition of 2-amino-4-(4-heptyloxyphenyl)-2-methylbutanol-resistant human Jurkat SBR1 mutant cells proliferation after 18 hrs by MTT assay. The format is functional, cell-based.
Series [10] has as its system Jurkat. In words: Inhibition of 2-amino-4-(4-heptyloxyphenyl)-2-methylbutanol-resistant human Jurkat SBR2 mutant cells proliferation after 18 hrs by MTT assay. The format is functional, cell-based.
Series [11] relates to Jurkat. In words: Resistance index, ratio of IC50 for 2-amino-4-(4-heptyloxyphenyl)-2-methylbutanol-resistant human Jurkat SBR1 mutant cells to IC50 for human wild type Jurkat cells. The format is functional.
Series [12] concerns the target Sphingosine kinase 1 (Homo sapiens) (UniProt Q9NYA1). In words: Inhibition of Sphk1 expressed in HEK293 cells. The format is cell-based.
Series [13] can be described thus: Drug level in MRL/Mpj-lpr/lpr mouse thymus assessed as (R)-2-amino-4-(4-(heptyloxy)phenyl)-2-methylbutyl dihydrogen phosphate levels per mg of tissue at 1 mg/kg, ip after 1 hr. On the set-up: dose 1 mg/kg, route intraperitoneal. The following applies: in vivo. The format is ADME, organism-based.
Series [14] concerns Spleen. In words: Drug level in MRL/MpJ-lpr/lpr mouse spleen assessed as (R)-2-amino-4-(4-(heptyloxy)phenyl)-2-methylbutyl dihydrogen phosphate levels per mg of tissue at 1 mg/kg, ip after 1 hr. Details: dose 1 mg/kg, route intraperitoneal. The format is ADME, organism-based. The following applies: in vivo.
Series [15] deals with Lymphocyte. In words: Induction of apoptosis in MRL/MpJ-lpr/lpr mouse lymph node lymphocytes assessed as increase in apoptotic cells in lymph nodes at 1 mg/kg, ip by annexin V method. The format is functional, organism-based. On the set-up: dose 1 mg/kg.
In series [16] the test system is Splenocyte. In words: Induction of apoptosis in Sphk2-knock out mouse primary splenocytes assessed as resistant cells after 18 hrs by propidium iodide exclusion assay. The format is functional, cell-based.
For series [17], the system named is Jurkat. The series is described as follows: Induction of apoptosis in human Jurkat SBR1 cells expressing Sphk2 after 18 hrs by MTT assay. The format is functional, cell-based.
For series [18], the system named is Jurkat. The series is described as follows: Induction of apoptosis in human Jurkat cells assessed as increase in cytosolic calcium levels after 8 hrs. The format is functional, cell-based.
Series [19] deals with Splenocyte. In words: Induction of apoptosis in Sphk1-knock out mouse primary splenocytes assessed as resistant cells after 18 hrs by propidium iodide exclusion assay. The format is functional, cell-based.
Series [20] relates to Lymphocyte. The series is described as follows: Induction of apoptosis in MRL/MpJ-lpr/lpr mouse thymus lymphocytes assessed as increase in apoptotic cells in thymus at 1 mg/kg, ip by annexin V method. The format is functional, organism-based. On the set-up: dose 1 mg/kg.
The subject of series [21] is Jurkat. In words: Induction of apoptosis in human Jurkat SBR1 mutant cells assessed as activation of effector capsases after 18 hrs. The format is functional, cell-based.
For series [22], the system named is Jurkat. In words: Induction of apoptosis in human Jurkat SBR1 cells expressing Sphk1 after 18 hrs by MTT assay. The format is functional, cell-based.
Series [23] deals with Jurkat. The series is described as follows: Induction of apoptosis in human Jurkat cells assessed as activation of effector capsases after 18 hrs. The format is functional, cell-based.
Series [24] in a line: Cell viability of Sphk2-knock out mouse embryonic fibroblasts assessed as resistant cells after 18 hrs by propidium iodide exclusion assay. The format is functional, cell-based. The following applies: Fibroblast.
Series [25] concerns Jurkat. In words: Reversal of inhibition of mitochondrial function in human Jurkat cells after 18 hrs in presence of Z-VAD-fmk. The format is functional, cell-based.

As usually defined, the IC50 is the concentration that inhibits the measured activity by half. Read a high IC50 as weaker potency in that assay.

Molecules are shown by their SMILES. Calls of active or inactive are those of the source. The rule behind the calls is not given here. Bounds are passed on as bounds.

Chain of Sphingosine kinase 1 (Homo sapiens) (Q9NYA1 whole entry): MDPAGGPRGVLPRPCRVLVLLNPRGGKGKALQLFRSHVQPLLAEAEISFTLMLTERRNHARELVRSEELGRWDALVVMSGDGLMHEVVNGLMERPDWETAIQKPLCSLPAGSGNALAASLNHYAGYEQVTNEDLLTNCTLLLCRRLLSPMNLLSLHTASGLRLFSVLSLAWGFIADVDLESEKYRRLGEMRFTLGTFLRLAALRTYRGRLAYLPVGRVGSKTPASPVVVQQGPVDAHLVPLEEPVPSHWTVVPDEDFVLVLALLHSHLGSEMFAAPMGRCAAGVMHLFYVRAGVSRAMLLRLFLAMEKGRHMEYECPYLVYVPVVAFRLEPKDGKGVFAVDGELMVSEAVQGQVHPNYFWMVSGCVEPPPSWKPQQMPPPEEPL

For `CCCCCCCOc1ccc(CC[C@](C)(N)CO)cc1`, the outcome in series [1], in series [2] and in series [4] was inactive. The result in series [3] was Active.

For the compound `CCCCCCCCCCCCCCC[C@@H](O)[C@@H](N)CO` [DIHYDROSPINGOSINE], the IC50 in series [5] stood at 3.53 µM; in series [7], 6.31 µM; in [9], 4.9 µM; in series [10] it was 3.68 µM. The results for the “Ratio IC50” value in series [6], in series [8] and in series [11] were 1.3, 1.8 and 1.4, respectively.

Turning to `CCCCCCCOc1ccc(CC[C@@](C)(N)COP(=O)(O)O)cc1`, the outcome in series [5], in [2] and in [12] was inactive.

`CCCCCCCCCCCCCC[C@@H](O)[C@@H](O)[C@@H](N)CO` (single isomer, unassigned) [PHYTOSPHINGOSINE]: the concentration for half-maximal inhibition (IC50) in series [5] came to 3.75 µM; in series [7] it was 4.12 µM; in series [9], 6.57 µM; in series [10], 5.29 µM. Moreover, the “Ratio IC50” value was found to be 1.4 in series [6], 1.1 in series [8] and 1.8 in [11].

Regarding `CCCCCCCOc1ccc(CC[C@@](C)(N)CO)cc1`, the Activity in [13] and in series [14] was < 0.2 pmol/mg each time. Moreover, the result in series [15], in [1], in series [16], in series [17], in series [3] and in [18] was Active. The outcome in [22], in series [23] and in series [24] was Active. Also, the IC50 in [5] was found to be 2.32 µM; in series [7], 7.12 µM; in series [9], 8.72 µM; in [10], 7.72 µM. The “Ratio IC50” value is recorded as 3.3 in series [6], 3.1 in series [8] and 3.8 in series [11]. Further, the result in series [19], in series [20] and in series [21] was inactive.

With `CCCCCCCCCCCCC/C=C/[C@@H](O)[C@@H](N)CO` [SPHINGOSINE], the IC50 in [5] is 2.01 µM; in series [7] it was 3.38 µM; in series [9] it was 3.48 µM; in [10], 2.88 µM. The “Ratio IC50” value in [6] was 1.4; in series [8] it was 1.7; in series [11], 1.7. In series [24], the outcome was inactive.

As to `CCCCCCCCc1ccc(CCC(N)(CO)CO)cc1`, the outcome in [25] was Active.

As for `COc1cc([C@@H]2c3cc4c(cc3[C@@H](O[C@@H]3O[C@@H]5CO[C@@H](C)O[C@H]5[C@H](O)[C@H]3O)[C@H]3COC(=O)[C@H]23)OCO4)cc(OC)c1O`, the outcome in series [7], in series [9] and in series [10] was Active.
